One test concerns the target T1, Mitogen-activated protein kinase 14 (Homo sapiens, UniProt Q16539).
T1 sequence (Q16539 whole entry): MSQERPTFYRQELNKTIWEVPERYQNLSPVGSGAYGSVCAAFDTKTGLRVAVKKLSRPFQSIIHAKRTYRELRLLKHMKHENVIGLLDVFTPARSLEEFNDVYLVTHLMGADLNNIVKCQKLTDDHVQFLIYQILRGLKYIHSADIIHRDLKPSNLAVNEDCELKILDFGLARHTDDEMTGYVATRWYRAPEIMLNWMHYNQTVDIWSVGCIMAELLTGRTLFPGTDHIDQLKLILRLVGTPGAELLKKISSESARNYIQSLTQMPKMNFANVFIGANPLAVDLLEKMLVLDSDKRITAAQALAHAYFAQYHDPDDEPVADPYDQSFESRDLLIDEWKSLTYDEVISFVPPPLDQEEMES
Description: Binding affinity to full-length GST-tagged p38alpha after 2.5 hrs by TR-FRET competition binding assay
`Cc1ccc(-n2nc(C(C)(C)C)cc2NC(=O)Nc2cccc3ccccc23)cc1C(=O)NCc1ccncn1`: affinity was put at a Ki of 327 nM. Take `Cc1ccc(-n2nc(C(C)(C)C)cc2NC(=O)Nc2cccc3ccccc23)cc1C(=O)NCCCN1CCOCC1`: the affinity corresponds to a Ki of 291 nM. Consider `Cc1ccc(-n2nc(C(C)(C)C)cc2NC(=O)Nc2cccc3ccccc23)cc1C(=O)N(CCCN)C1CCCCC1`, for which the Ki turned out to be 89 nM. Compound `Cc1ccc(-n2nc(C(C)(C)C)cc2NC(=O)Nc2cccc3ccccc23)cc1C(=O)NCCN1CCN(C)CC1` yielded a Ki of 140 nM. The same measure, in the same setting: for `COCCCN1CCC(NC(=O)c2cc(-n3nc(C(C)(C)C)cc3NC(=O)Nc3cccc4ccccc34)ccc2C)CC1` the value was 336 nM. Same read-out and setting: next, `Cc1ccc(-n2nc(C(C)(C)C)cc2NC(=O)Nc2cccc3ccccc23)cc1C(=O)NCCNc1ccccc1`: 433 nM. Same read-out and setting: for `Cc1ccc(-n2nc(C(C)(C)C)cc2NC(=O)Nc2cccc3ccccc23)cc1C(=O)NCC(CC(C)C)C(N)=O` (stereo not drawn) the value was 786 nM; for `Cc1ccc(-n2nc(C(C)(C)C)cc2NC(=O)Nc2cccc3ccccc23)cc1C(=O)NC1CCN(CCN2CCOCC2)CC1`, 885 nM. Consider `COc1ccccc1CCNC(=O)c1cc(-n2nc(C(C)(C)C)cc2NC(=O)Nc2cccc3ccccc23)ccc1C`, for which the Ki is above 3900 nM. Still for that read-out and setting: next, `COc1ccc(CCNC(=O)c2cc(-n3nc(C(C)(C)C)cc3NC(=O)Nc3cccc4ccccc34)ccc2C)cc1`: above 3900 nM. Still for that read-out and setting: next, `Cc1ccc(-n2nc(C(C)(C)C)cc2NC(=O)Nc2cccc3ccccc23)cc1C(=O)N[C@@H]1CS(=O)(=O)C[C@H]1O`: 112 nM. `Cc1ccc(-n2nc(C(C)(C)C)cc2NC(=O)Nc2cccc3ccccc23)cc1C(=O)NCC#N` showed a Ki of 252 nM.

As for `Cc1ccc(-n2nc(C(C)(C)C)cc2NC(=O)Nc2cccc3ccccc23)cc1C(=O)NCCCN1CCCC1`, the Ki was 301 nM. For the compound `Cc1ccc(-n2nc(C(C)(C)C)cc2NC(=O)Nc2cccc3ccccc23)cc1C(=O)N(CCCN)C(C)C`, the affinity corresponds to a Ki of 312 nM. The same measure, in the same setting: for `Cc1ccc(-n2nc(C(C)(C)C)cc2NC(=O)Nc2cccc3ccccc23)cc1C(=O)NC[C@@H](CO)C(C)C` the value was 471 nM; for `CCN(CCN(C)C)C(=O)c1cc(-n2nc(C(C)(C)C)cc2NC(=O)Nc2cccc3ccccc23)ccc1C`, 735 nM. In turn, `Cc1ccc(-n2nc(C(C)(C)C)cc2NC(=O)Nc2cccc3ccccc23)cc1C(=O)NCCC1=CCCCC1` came in with a Ki above 3900 nM.

In another test the target is T1, Mitogen-activated protein kinase 14. This is another data set of the same source.
Description: Binding affinity to full-length GST-tagged p38alpha by surface plasmon resonance assay
`Cc1ccc(-n2nc(C(C)(C)C)cc2NC(=O)Nc2cccc3ccccc23)cc1C(=O)NCC#N` displayed a Kd of 55 nM.

A word on the Ki: it is the equilibrium dissociation constant of an inhibitor or competing ligand from its target. A high value points to lower affinity. One may read the Kd as the concentration at which binding is half-saturated. A low value points to higher affinity.

Values taken from ChEMBL document CHEMBL1255503, “Biochemical and biophysical characterization of unique switch pocket inhibitors of p38α” (Bioorg Med Chem Lett, 2010).
